# PMC12304293, “Combatting virulent gut bacteria by inhibiting the biosynthesis of a two-component lanthipeptide toxin” (Nature Communications, 2025)
# Values joined by “and” are separate entries in the source; they are usually repeats but may differ in a detail not shown here. Equal values may be shown once. Non-standard residues stand in square brackets, D forms with d. Residues, ends and D or L forms follow the SMILES beside them. *: point of attachment. boroGlu = O=C(O)CC[C@H](N*)B(O)O; Gly(cPr) = N[C@H](C(=O)O)C1CC1
# Legend:
# [1] = biological target: T1, His6-CylA-27-412 (Enterococcus faecalis, UniProt A0A2P6AWB8); assay: Co-operative pore formation assay (pyranine liposomes) measuring CylA-catalyzed cytolysin maturation; format: biochemical
# T1 sequence (A0A2P6AWB8 27-412): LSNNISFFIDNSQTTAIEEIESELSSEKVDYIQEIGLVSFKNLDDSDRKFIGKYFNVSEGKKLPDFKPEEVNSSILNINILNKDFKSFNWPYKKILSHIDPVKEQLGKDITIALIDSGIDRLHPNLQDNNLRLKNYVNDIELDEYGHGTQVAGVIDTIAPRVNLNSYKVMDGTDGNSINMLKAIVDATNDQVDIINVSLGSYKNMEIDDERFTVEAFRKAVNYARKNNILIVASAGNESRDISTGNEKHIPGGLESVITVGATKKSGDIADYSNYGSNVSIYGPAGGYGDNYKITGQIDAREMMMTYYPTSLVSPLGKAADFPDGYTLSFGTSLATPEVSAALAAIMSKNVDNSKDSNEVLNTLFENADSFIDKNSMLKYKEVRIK
# Excerpt: Cytolysin causes hemolysis and lyses a variety of eukaryotic cells[36],[37]. Additionally, CylA aggregates and is thought to associate primarily with the membrane of the producing cell[52],[53]. To mimic the maturation of cytolysin in vitro, an enzyme assay was designed that linked toxin production to the lysis of fluorescently labeled liposomes. […] In this way, pyranine fluorescence was correlated to toxin activation allowing for the determination of EC50 values (Fig. 4B, C).
# Fig. 4 In vitro pore formation assay for determining inhibitor effectiveness. A A schematic of the assay showing how pore formation is used as an indicator of toxin maturation. […] Pore formation dissipates a pH gradient between the interior of the liposome and the surrounding buffer increasing pyranine fluorescence. […] The data points from two replicates are shown (n = 2). Source data are provided as a Source Data file.
# Pyranine encapsulated liposomes were prepared as described elsewhere. […] To a well in a black 96-well plate (200 µL) was added 90 µL high pH buffer (5 mM MES, 5 mM Tricine, 5 mM NaCl, pH 7.4) containing CylA (4 nM final concentration). After adding inhibitor, the mixture was incubated at room temperature for 10 min then freshly prepared (no more than 2 days old) pyranine encapsulated DOPC liposomes were added such that the total DOPC concentration was 80 µM. […] The resulting curves were max-min normalized yielding the fraction of permeabilized liposomes. […] This experiment was performed in duplicate or triplicate for each inhibitor at each concentration.
# Supplementary Figure 3. Measuring CylA-cat alyzed cytolysin maturation using a pyranine pore formation assay. Plots on the left side show the normalized pyranine emission intensity monitored […]
# was added 30 min later. Each trace w as collected using a differ ent total co ncentration of inhibitor as indicated in the l egend. Traces are from a single representative tri al. On the right side, the fraction of liposomes permeabilized after 30 min was plotted as a function of total inhibitor concentration. The data were fit to a dose-response function using Origin 7 and the fit curve is depicted by the red line. Errors bars represent the standard of deviation bet ween two replicates (n = 2). Source d ata are pro vided as a Source Data file. […]
# [2] = test system: C+ E. faecalis (FA2-2 (pAM714), ATCC 29212); assay: Solution-phase hemolysis assay with C+ E. faecalis and rabbit erythrocytes; format: cell-based, Enterococcus faecalis
# Excerpt: To test this hypothesis, a solution-phase hemolysis assay was developed, and this assay was used to monitor the effect of 9 on the hemolytic activity of several strains of E. faecalis (Fig. 8A). The cytolysin BGC is part of conjugative plasmid pAD1[64]. E. faecalis FA2-2 (-pAD1) lacks pAD1 and E. faecalis FA2-2 (pAM9055) is defective in cylA[27],[64]. Consistent with previous findings, both strains were not hemolytic (Fig. 8A).
# A Treatment of an inoculum (OD600 = 0.35) of washed E. faecalis cells with 100 μM inhibitor 9 ( + 9), in the presence of washed rabbit erythrocytes. The hemolytic activity decreased relative to untreated controls (− 9). In total, four biological replicates (n = 4) for each condition were performed. Error bars represent the standard deviation and are centered at the mean. B Assessment of the ability of inhibitor 9 to block the hemolytic activity of live E. faecalis over a range of inhibitor concentrations under conditions described for (A). […] Errors in the EC50 are the errors calculated during the non-linear concatenate fit. C LCMS analysis of the concentration of CylLS” extracted from overnight cultures of C+ E. faecalis ATCC 29212 treated with 9 or vehicle. CylLS” extract concentrations were determined by comparison to an internal standard of ^15N,^13C-labeled CylLS”. Four biological replicates were performed (n = 4). Errors bars are centered at the mean and represent the standard of deviation. […] Four biological replicates were performed (n = 4). Error bars are centered at the mean and represent the standard of deviation. Statistical significance was calculated using a two sample and two sided t test for (A) and (C) and a one sample one sided t test for (D). **P < 0.01, ***P < 0.001. Source data are provided as a Source Data file.
# Rabbit erythrocytes (Hemostat) were washed with cold, sterile PBS and diluted in BHI to a concentration of 1% v/v. A 3 mL overnight culture of E. faecalis was centrifuged (4000 × g, 10 min) and the pellet was resuspended in 7 mL of BHI and the suspension was centrifuged (4000 × g, 10 min). The pellet was resuspended in BHI to achieve an OD600 of 1.4 and 50 µL of this suspension was added to a well containing 50 µL of inhibitor (400 µM). The inhibitor and the E. faecalis were incubated at room temperature for 10 min before adding 100 µL of 1% v/v rabbit erythrocytes in BHI. The inhibitor-free control well contained the same concentration of bacteria and rabbit erythrocytes. The sterile negative control and sterile positive control contained 100 µL of BHI and 100 µL of 1% v/v rabbit erythrocytes. […] The plate was then placed on ice and centrifuged at 1000 × g for 10 min to pellet all the remaining cellular material. The supernatant was diluted 10-fold in PBS and the absorbance at 415 nm was measured. For each condition, four wells were prepared and analyzed.
structure (smiles),measurement,setting,value
CC(=O)NCC(=O)N[C@@H](CC(=O)O)C(=O)N[C@H](C(=O)N[C@@H](CCC(N)=O)C(=O)N[C@@H](C)C(=O)N[C@@H](CCC(=O)O)B(O)O)C1CC1 [Compound 9] (Ac-GD[Gly(cPr)]QA-boroGlu),more effective than compound 1 at inhibiting pore formation,[1],2 fold
same,"hemolysis, absorbance at 415 nm (Figure 8A), replicates","[2]; ATCC29212 +9, 100 μM",0.1606 and 0.1785 and 0.1723 and 0.2311
same,hemolysis relative to untreated cells,"[2]; C+ E. faecalis ATCC 29212, 100 μM, rabbit erythrocytes",significantly reduced
same,hemolytic activity relative to untreated cells,"[2]; E. faecalis FA2-2 (pAM714), 100 μM, rabbit erythrocytes",significantly reduced
same,"OD 415 nm (Figure 8B), trials 1 and 2",[2]; log(concentration of Inhibitor 9 (uM)) 1,0.3132 and 0.3077
same,"OD 415 nm (Figure 8B), trials 1 and 2",[2]; log(concentration of Inhibitor 9 (uM)) 1.39794,0.3207 and 0.274
same,"OD 415 nm (Figure 8B), trials 1 and 2",[2]; log(concentration of Inhibitor 9 (uM)) 1.69897,0.2734 and 0.2373
same,"OD 415 nm (Figure 8B), trials 1 and 2",[2]; log(concentration of Inhibitor 9 (uM)) 1.87506,0.2493 and 0.2138
same,"OD 415 nm (Figure 8B), trials 1 and 2",[2]; log(concentration of Inhibitor 9 (uM)) 2,0.2161 and 0.1917
same,"OD 415 nm (Figure 8B), trials 1 and 2",[2]; log(concentration of Inhibitor 9 (uM)) 2.09691,0.2085 and 0.1864
same,"OD 415 nm (Figure 8B), trials 1 and 2",[2]; log(concentration of Inhibitor 9 (uM)) 2.17609,0.1972 and 0.1808
same,"OD 415 nm (Figure 8B), trials 1 and 2",[2]; log(concentration of Inhibitor 9 (uM)) 2.30103,0.2237 and 0.2008
same,"hemolysis, absorbance at 415 nm (Figure 8A), replicates","[2]; pAM714 +9, 100 μM",0.2309 and 0.2273 and 0.2512 and 0.1929
